Assay results: ChEMBL document CHEMBL3351345, “Design, synthesis, and structure-activity relationships of novel benzothiazole derivatives bearing the ortho-hydroxy N-carbamoylhydrazone moiety as potent antitumor agents” (Eur J Med Chem, 2014)
pEC50, pIC50: −log10 of the molar value.

Key:
NCI-H226 = experiment: Antiproliferative activity against human NCI-H226 cells after 72 hrs by MTT assay; format: functional, cell-based; settings: NCI-H226, 72 h
[1] = Antiproliferative activity against human MKN45 cells after 72 hrs by MTT assay; format: functional, cell-based; settings: MKN-45, 72 h
HT-29 = experiment: Antiproliferative activity against human HT-29 cells after 72 hrs by MTT assay; format: functional, cell-based; settings: HT-29, 72 h
MDA-MB-231 = experiment: Antiproliferative activity against human MDA-MB-231 cells after 72 hrs by MTT assay; settings: MDA-MB-231, 72 h
SK-N-SH = experiment: Antiproliferative activity against human SK-N-SH cells after 72 hrs by MTT assay; format: functional, cell-based
Caspase-3 (Homo sapiens) = target: T1, Caspase-3 (Homo sapiens) (UniProt P42574); experiment: Ratio of PAC1 EC50 to compound EC50 for procaspase 3 activity (unknown origin)
T1 sequence (whole entry): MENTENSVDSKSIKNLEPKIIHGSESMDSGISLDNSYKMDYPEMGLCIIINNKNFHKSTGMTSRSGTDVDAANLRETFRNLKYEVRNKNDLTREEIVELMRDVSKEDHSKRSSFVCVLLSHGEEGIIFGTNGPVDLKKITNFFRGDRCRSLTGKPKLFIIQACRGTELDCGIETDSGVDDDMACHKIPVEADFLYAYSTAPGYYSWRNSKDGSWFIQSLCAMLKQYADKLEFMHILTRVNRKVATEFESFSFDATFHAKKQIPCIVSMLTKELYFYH

Caspase-3 = target: T2, Caspase-3 (Homo sapiens, UniProt P42574); experiment: Induction of procaspase 3 activity (unknown origin) using Ac-DEVD-pNa as substrate after 2 hrs
T2 sequence (P42574 whole entry): T1 sequence (whole entry)

| SMILES | pIC50 (NCI-H226) | pIC50 [1] | pIC50 (HT-29) | pIC50 (MDA-MB-231) | pIC50 (SK-N-SH) | Ratio EC50 (Caspase-3 (Homo sapiens)) | pEC50 (Caspase-3) |
| --- | --- | --- | --- | --- | --- | --- | --- |
| CCN(CC)Cc1ccc2nc(NC(=O)N/N=C/c3ccccc3O)sc2c1 | 5.74 | 5.77 | 5.39 | 4.95 | 5.24 |  |  |
| CCN(CC)Cc1ccc2nc(NC(=O)N/N=C/c3ccc(OCc4ccc(C(C)(C)C)cc4)cc3O)sc2c1 | 6.80 | 6.30 | 6.11 | 6.01 | 6.32 | 2.9 | 5.85 |
| O=C(N/N=C/c1ccc(OCc2csc(Cc3ccc4c(c3)OCO4)n2)cc1O)Nc1nc2ccc(N3CCOCC3)cc2s1 | 5.67 | 6.00 | 5.64 | 5.39 | 5.21 |  |  |
| CC1CCN(Cc2ccc3nc(NC(=O)N/N=C/c4ccc(OCc5ccc(C(C)(C)C)cc5)cc4O)sc3c2)CC1 | 6.74 | 6.77 | 6.06 | 6.25 | 6.57 |  | 5.62 |
| CN(C)Cc1ccc2nc(NC(=O)N/N=C/c3ccccc3O)sc2c1 | 5.69 | 5.81 | 5.22 | 5.23 | 5.29 |  |  |
| CCN(CC)Cc1ccc2nc(NC(=O)N/N=C/c3ccc(OCc4ccc(Cl)cc4)cc3O)sc2c1 | 6.37 | 6.27 | 5.99 | 6.21 | 6.13 |  | 5.30 |
| O=C(N/N=C/c1ccc(OCc2cccc(Cl)c2)cc1O)Nc1nc2ccc(N3CCOCC3)cc2s1 | 6.10 | 6.55 | 6.23 | 5.93 | 5.83 |  |  |
| CN(C)Cc1ccc2nc(NC(=O)N/N=C/c3ccc(O)cc3O)sc2c1 | 5.53 | 5.55 | 4.11 | < 4.00 | 4.84 |  |  |
| C=CCc1cccc(/C=N/NC(=O)CN2CCN(Cc3ccccc3)CC2)c1O [PAC-1] | 5.99 | 5.58 | 5.87 | 5.32 | 5.51 |  | 5.39 |
| CCN(CC)Cc1ccc2nc(NC(=O)N/N=C/c3ccc(OCc4cccc(Cl)c4)cc3O)sc2c1 | 5.89 | 6.38 | 5.73 | 6.24 | 5.74 |  |  |
| CN(C)Cc1ccc2nc(NC(=O)N/N=C/c3ccc(OCc4ccc(Cl)cc4)cc3O)sc2c1 | 5.93 | 6.15 | 5.67 | 6.22 | 5.56 |  |  |
| CCN(CC)Cc1ccc2nc(NC(=O)N/N=C/c3ccc(OCc4ccc(Cl)cc4Cl)cc3O)sc2c1 | 6.15 | 6.28 | 5.61 | 5.82 | 5.98 |  |  |
| Cc1ccc(COc2ccc(/C=N/NC(=O)Nc3nc4ccc(CN5CCC(C)CC5)cc4s3)c(O)c2)cc1 | 5.97 | 6.51 | 5.98 | 5.82 | 5.81 |  |  |
| O=C(N/N=C/c1ccccc1O)Nc1nc2ccc(CN3CCOCC3)cc2s1 | 5.57 | 5.63 | 4.99 | 4.92 | 5.15 |  |  |
| CC1CCN(Cc2ccc3nc(NC(=O)N/N=C/c4ccc(OCc5ccc(Cl)cc5)cc4O)sc3c2)CC1 | 6.39 | 6.68 | 6.02 | 6.06 | 5.97 |  |  |
| CC1CCN(Cc2ccc3nc(NC(=O)N/N=C/c4ccc(OCc5ccc(Cl)cc5Cl)cc4O)sc3c2)CC1 | 6.41 | 6.55 | 6.00 | 6.52 | 5.99 |  |  |
| CC(C)(C)c1ccc(COc2ccc(/C=N/NC(=O)Nc3nc4ccc(N5CCOCC5)cc4s3)c(O)c2)cc1 | 6.62 | 6.34 | 6.04 | 5.98 | 6.04 |  | 4.74 |
| CC1CCN(Cc2ccc3nc(NC(=O)N/N=C/c4ccc(OCc5csc(Cc6ccc7c(c6)OCO7)n5)cc4O)sc3c2)CC1 | 6.09 | 6.26 | 5.95 | 6.06 | 5.90 |  |  |
| O=C(N/N=C/c1ccc(OCc2ccc(Cl)cc2)cc1O)Nc1nc2ccc(N3CCOCC3)cc2s1 | 6.59 | 6.54 | 8.74 | 5.35 | 5.86 |  |  |

| SMILES | pIC50 (NCI-H226) | pIC50 [1] | pIC50 (HT-29) | pIC50 (MDA-MB-231) | pIC50 (SK-N-SH) | Ratio EC50 (Caspase-3 (Homo sapiens)) | pEC50 (Caspase-3) |
| --- | --- | --- | --- | --- | --- | --- | --- |
| Cc1ccc(COc2ccc(/C=N/NC(=O)Nc3nc4ccc(N5CCOCC5)cc4s3)c(O)c2)cc1 | 6.28 | 6.12 | 5.80 | 4.71 | 5.60 |  |  |
| CN(C)Cc1ccc2nc(NC(=O)N/N=C/c3ccc(OCc4csc(Cc5ccc6c(c5)OCO6)n4)cc3O)sc2c1 | 6.14 | 6.21 | 5.73 | 5.98 | 6.10 |  |  |
| CC1CCN(Cc2ccc3nc(NC(=O)N/N=C/c4ccccc4O)sc3c2)CC1 | 5.53 | 6.17 | 4.98 | 4.91 | 5.36 |  |  |
| CC1CCN(Cc2ccc3nc(NC(=O)N/N=C/c4ccc(OCc5cccc(Cl)c5)cc4O)sc3c2)CC1 | 6.44 | 6.17 | 5.76 | 5.95 | 6.47 |  | 5.37 |
| CC1CCN(Cc2ccc3nc(NC(=O)N/N=C/c4ccc(OCc5ccccc5Cl)cc4O)sc3c2)CC1 | 6.10 | 6.12 | 5.99 | 5.64 | 6.07 |  |  |
| CCN(CC)Cc1ccc2nc(NC(=O)N/N=C/c3ccc(OCc4ccccc4Cl)cc3O)sc2c1 | 6.25 | 6.38 | 5.65 | 6.13 | 5.70 |  |  |
| O=C(N/N=C/c1ccccc1O)Nc1nc2ccc(N3CCOCC3)cc2s1 | 5.37 | 5.03 | 4.17 | < 4.00 | 4.93 |  |  |
| CCN(CC)Cc1ccc2nc(NC(=O)N/N=C/c3ccc(OCc4ccc(C)cc4)cc3O)sc2c1 | 6.00 | 6.24 | 5.88 | 6.15 | 5.84 |  |  |
| Cc1ccc(COc2ccc(/C=N/NC(=O)Nc3nc4ccc(CN(C)C)cc4s3)c(O)c2)cc1 | 5.97 | 5.90 | 5.67 | 5.58 | 5.59 |  |  |
| CC1CCN(Cc2ccc3nc(NC(=O)N/N=C/c4ccc(O)cc4O)sc3c2)CC1 | 5.34 | 5.39 | 5.56 | 5.78 | 5.11 |  |  |
| CCN(CC)Cc1ccc2nc(NC(=O)N/N=C/c3ccc(O)cc3O)sc2c1 | 5.29 | 5.76 | 4.62 | 5.39 | 5.22 |  |  |
| CCN(CC)Cc1ccc2nc(NC(=O)N/N=C/c3ccc(OCc4ccccc4)cc3O)sc2c1 | 6.06 |  | 5.84 |  | 5.78 |  |  |
| O=C(N/N=C/c1ccc(OCc2ccc(Cl)cc2Cl)cc1O)Nc1nc2ccc(N3CCOCC3)cc2s1 | 5.91 | 5.76 | 5.33 | 4.82 | 5.50 |  |  |
| CN(C)Cc1ccc2nc(NC(=O)N/N=C/c3ccc(OCc4cccc(Cl)c4)cc3O)sc2c1 | 6.44 | 6.72 | 5.53 | 6.27 | 5.92 |  |  |
| CN(C)Cc1ccc2nc(NC(=O)N/N=C/c3ccc(OCc4ccccc4Cl)cc3O)sc2c1 | 6.24 | 6.48 | 5.79 | 6.17 | 5.53 |  |  |
| CC1CCN(Cc2ccc3nc(NC(=O)N/N=C/c4ccc(OCc5ccccc5)cc4O)sc3c2)CC1 | 6.21 |  | 5.80 |  | 5.88 |  |  |
| CN(C)Cc1ccc2nc(NC(=O)N/N=C/c3ccc(OCc4ccc(C(C)(C)C)cc4)cc3O)sc2c1 | 6.08 | 5.98 | 5.82 | 5.94 | 5.78 |  |  |
| CCN(CC)Cc1ccc2nc(NC(=O)N/N=C/c3ccc(OCc4csc(Cc5ccc6c(c5)OCO6)n4)cc3O)sc2c1 | 6.85 | 6.29 | 6.14 | 6.26 | 6.32 | 16 | 6.60 |
